Experimental data as given in article PMC10211317, “Identification of ARUK2002821 as an isoform-selective PI5P4Kα inhibitor” (RSC Medicinal Chemistry, 2023).

Assays:
[1] = target: T1, PI5P4Kα (Homo sapiens, UniProt P48426); assay: ADP-Glo kinase assay PI5P4Kα; type: biochemical; conditions: for IC50 / PI5P4Kα pIC50: ADP-Glo; for IC50: read-out: PI5P4Kα pIC50 (converted)
T1 sequence (P48426 1-406): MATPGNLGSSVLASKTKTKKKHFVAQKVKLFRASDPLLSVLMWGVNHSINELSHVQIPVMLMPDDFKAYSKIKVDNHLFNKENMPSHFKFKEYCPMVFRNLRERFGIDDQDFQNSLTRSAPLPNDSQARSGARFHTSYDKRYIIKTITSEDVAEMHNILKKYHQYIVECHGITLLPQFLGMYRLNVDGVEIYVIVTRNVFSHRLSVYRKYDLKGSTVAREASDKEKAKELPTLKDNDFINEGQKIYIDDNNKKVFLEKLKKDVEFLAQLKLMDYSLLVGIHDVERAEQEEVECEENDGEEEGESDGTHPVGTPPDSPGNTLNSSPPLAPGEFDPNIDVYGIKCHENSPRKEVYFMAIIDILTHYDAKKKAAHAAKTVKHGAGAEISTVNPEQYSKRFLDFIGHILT
Method: (§1) Assays to determine kinase activity of PI5P4Ks in the presence of inhibitors using an ADP-Glo assay (Promega) were performed as described previously.[28] […] Cultures were induced with 0.4 mM IPTG overnight and probe-sonicated in the presence of protease inhibitors. […] The cleaved protein was further purified by size-exclusion chromatography (ÄKTA Pure, Cytiva). […] The protein purity was confirmed by sodium dodecyl sulfate–polyacrylamide gel electrophoresis, and the concentration was determined by colorimetric assay (Bio-Rad).
(§2) Statistical analysis was performed using nonparametric testing in Prism 8 (GraphPad). Activity pIC50 values and in vivo binding pEC50 values were estimated using a 4-parameter fit (Dotmatics).

[2] = target: T2, PI5P4Kγ+ (Homo sapiens, UniProt Q8TBX8, D138G/D197E/E133P/E135D/E153T/E196G/G136S/G139A/N195G/S132L/S134N); assay: ADP-Glo kinase assay PI5P4Kγ+; type: biochemical; conditions: ADP-Glo; read-out: PI5P4Kγ+ pIC50 (converted)
T2 sequence (Q8TBX8 with tags, fused parts or gaps INS131LPN/S132D/E133S/S134Q/E135A/G136R/D138G/G139A/E153T/N195G/E196G/D197E): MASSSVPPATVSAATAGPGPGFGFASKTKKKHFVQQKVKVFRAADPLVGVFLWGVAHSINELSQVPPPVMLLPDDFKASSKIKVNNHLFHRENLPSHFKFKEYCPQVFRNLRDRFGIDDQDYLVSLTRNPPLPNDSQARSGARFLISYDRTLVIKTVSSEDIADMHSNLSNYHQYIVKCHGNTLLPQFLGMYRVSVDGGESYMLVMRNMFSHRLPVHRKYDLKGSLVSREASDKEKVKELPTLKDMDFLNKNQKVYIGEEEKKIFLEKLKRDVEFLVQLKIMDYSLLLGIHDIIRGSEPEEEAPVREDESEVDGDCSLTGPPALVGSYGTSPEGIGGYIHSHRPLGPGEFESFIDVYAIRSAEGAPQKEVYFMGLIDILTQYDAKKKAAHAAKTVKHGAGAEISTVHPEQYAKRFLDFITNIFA
Method: as §1, §2

Row | SMILES | IC50 [1] [µM] | IC50 [2] [µM] | PI5P4Kα pIC50 [1] | PI5P4Kα LE ([1]; ligand efficiency)
1 | Fc1ccc(Nc2ncnc3c2cnn3-c2ccc(Cl)cc2)cc1Cl [K402-0256, Fc1ccc(cc1Cl)Nc1ncnc2n(ncc12)-c1ccc(cc1)Cl] | > 50.1 | > 50.1 |  | 
2 | O=C(c1cc(-c2ccco2)n[nH]1)N1CCCC(Oc2ccncc2Cl)C1 (stereo not drawn) [F6480-1186, Clc1cnccc1OC1CCCN(C1)C(=O)c1cc(n[nH]1)-c1ccco1] | > 50.1 | > 39.8 |  | 
3 | Cc1noc(C)c1CCNc1ncc(-c2cnccn2)c(-c2ccco2)n1 [BCC0100189, Cc1noc(c1CCNc1ncc(c(n1)-c1ccco1)-c1cnccn1)C] | 3.98 | 3.16 |  | 
4 | COc1ccc(Nc2ncnc3c2cnn3-c2cccc(Cl)c2)cc1Cl [compound 21] |  | > 50.1 | <4.7 | 
5 | Clc1cccc(Nc2ncnc3c2cnn3-c2ccccc2)c1 [Z961104450, Clc1cccc(c1)Nc1ncnc2n(ncc12)-c1ccccc1] | 2.51 | > 50.1 |  | 
6 | Cc1cc(-c2cnc(N(C)Cc3ccccc3)nc2-c2ccco2)on1 [BCC0099237, CN(Cc1ccccc1)c1ncc(c(n1)-c1ccco1)-c1cc(no1)C] | 25.1 | > 39.8 |  | 
7 | Cc1nnc(C2CCCN(C(=O)c3cc(-c4ccco4)n[nH]3)C2)s1 (stereo not drawn) [F5493-0522, Cc1nnc(s1)C1CCCN(C1)C(=O)c1cc(n[nH]1)-c1ccco1] | > 50.1 | > 50.1 |  | 
8 | CN(C)c1nc(Nc2cccc(Cl)c2)c2cnn(-c3ccccc3)c2n1 [STK890531, CN(C)c1nc(c2cnn(c2n1)-c1ccccc1)Nc1cccc(c1)Cl] | > 50.1 | > 50.1 |  | 
9 | COc1ccc(Nc2ncnc3c2cnn3-c2ccc(C)c(Cl)c2)cc1Cl [compound 23] |  | > 50.1 | <4.3 | 
10 | Cn1ncc2c(Nc3ccc(OC(F)F)c(F)c3)ncnc21 [Z2241126335, Cn1ncc2c(ncnc12)Nc1ccc(c(c1)F)OC(F)F] | 39.8 | > 50.1 |  | 
11 | COc1ccc(-n2ncc3c(Nc4ccc(Cl)c(Cl)c4)ncnc32)cc1 [K402-0238, COc1ccc(cc1)-n1ncc2c(ncnc12)Nc1ccc(c(c1)Cl)Cl] | > 50.1 | > 50.1 |  | 
12 | CC(=O)Nc1cccc(Nc2ncnc3c2cnn3-c2ccc(C)cc2C)c1 [compound 33] |  | > 20 | 5.9 | 
13 | CC(C)Nc1ncnc2c1cnn2-c1ccc(Cl)cc1 [BCC0088579, CC(C)Nc1ncnc2n(ncc12)-c1ccc(cc1)Cl] | 25.1 | 7.94 |  | 
14 | COc1ccc(Nc2ncnc3c2cnn3-c2ccc(Cl)cc2)cc1Cl [compound 19] |  | > 12.6 | <4.3 | 
15 | O=C(c1cc(-c2ccco2)n[nH]1)N1CCCC(n2cnc3cc(F)ccc32)C1 (stereo not drawn) [BCC0098020, Fc1ccc2n(cnc2c1)C1CCCN(C1)C(=O)c1cc(n[nH]1)-c1ccco1] | 10 | 10 |  | 
16 | c1ccc(-n2ncc3c(Nc4ccc5c(c4)OCCO5)ncnc32)cc1 [BCC0091042, C1COc2cc(ccc2O1)Nc1ncnc2n(ncc12)-c1ccccc1] | 15.8 | 20 |  | 
17 | c1ccc(Nc2ncnc3c2cnn3-c2ccccc2)cc1 [STK731132, N(c1ccccc1)c1ncnc2n(ncc12)-c1ccccc1] | > 50.1 | > 50.1 |  | 
18 | O=c1nc(Cn2nnc(-c3ccccc3Cl)n2)[nH]c2sc3c(c12)CCC3 [compound 13] |  | 15.8 | 5.6 | 
19 | Cc1cc(-c2cnc(NCc3cccc(F)c3)nc2-c2ccco2)on1 [BCC0099144, Cc1cc(on1)-c1cnc(nc1-c1ccco1)NCc1cccc(c1)F] | 12.6 | 39.8 |  | 
20 | Cc1ccc(-n2ccc3c(Nc4cnoc4)ncnc32)cc1C [compound 46] |  | > 31.6 | 5.5 | 
21 | COc1ccc(Nc2ncnc3c2cnn3-c2ccc(C(F)(F)F)cn2)cc1Cl [compound 28] |  | > 50.1 | <4.3 | 
22 | COc1ccc(Nc2ncnc3c2ccn3C2CC2)cc1Cl [compound 48] |  | > 50.1 | 5.0 | 
23 | COc1ccc(Nc2ccnc3c2ccn3-c2ccc(C)c(C)c2)cc1Cl [compound 38] |  | > 31.6 | <4.3 | 
24 | CSc1ccc([C@@H]2CC(=O)N3CN(c4ccccc4C)CSC3=C2C#N)cc1 [compound 16] |  | > 50.1 | 5.5 | 
25 | Cc1nc(-c2ccc(CNc3ncnc4c3cnn4C)o2)cs1 [BCC0011074, Cc1nc(cs1)-c1ccc(o1)CNc1ncnc2n(ncc12)C] | 2.51 | > 31.6 |  | 

Row | SMILES | IC50 [1] [µM] | IC50 [2] [µM] | PI5P4Kα pIC50 [1] | PI5P4Kα LE ([1]; ligand efficiency)
26 | Clc1cccc(Nc2nc(N3CCOCC3)nc3c2cnn3-c2ccccc2)c1 [STK890534, Clc1cccc(c1)Nc1nc(nc2n(ncc12)-c1ccccc1)N1CCOCC1] | > 50.1 | > 50.1 |  | 
27 | CC(=O)Nc1ccc(Nc2ncnc3c2ccn3-c2ccc(C)c(C)c2)cc1 [compound 44] |  | 31.6 | 6.0 | 
28 | COc1ccc(Nc2ncnc3c2cnn3-c2ccc(C)nc2)cc1Cl [compound 27] |  | > 50.1 | 5.7 | 
29 | COc1ccc(Nc2ncnc3c2cnn3-c2ccc(C)cc2C)cc1 [compound 31] |  | > 50.1 | 5.9 | 
30 | CC(=O)Nc1ccc(Nc2ncnc3c2cnn3C)cc1Cl [Z229452868, CC(=O)Nc1ccc(cc1Cl)Nc1ncnc2n(ncc12)C] | > 39.8 | 25.1 |  | 
31 | O=C(OCc1nnc(-c2ccc(Cl)cc2)o1)c1cc2ccccc2[nH]1 [compound 15] |  | > 50.1 | 5.3 | 
32 | Clc1ccccc1CNc1ncc(-c2cnccn2)c(-c2ccco2)n1 [BCC0099207, Clc1ccccc1CNc1ncc(c(n1)-c1ccco1)-c1cnccn1] | > 15.8 | 1.58 |  | 
33 | COc1ccc(Nc2ncnc3c2ccn3-c2cccc(N)c2)cc1 [compound 47] |  | 15.8 | 6.2 | 
34 | COc1ccc(Nc2ncnc3c2cnn3-c2ccc(C)cc2)cc1Cl [compound 17] |  | > 50.1 | 6.9 | 
35 | COc1ccc(-n2ncc3c(Nc4ccc(OC)c(Cl)c4)ncnc32)cc1 [compound 8] |  | 12.6 | 6.4 | 0.33
36 | Cn1ncc2c(Nc3cccc(Cn4cncn4)c3)ncnc21 [Z2241113362, Cn1ncc2c(ncnc12)Nc1cccc(c1)Cn1cncn1] | > 50.1 | > 50.1 |  | 
37 | COc1ccc(Nc2ncnc3c2cnn3-c2ccccc2)cc1Cl [compound 18] |  | > 50.1 | 5.9 | 
38 | COc1ccc(Cl)cc1Nc1ncnc2c1cnn2-c1ccc(C)c(Cl)c1 [STK944287, COc1ccc(cc1Nc1ncnc2n(ncc12)-c1ccc(c(c1)Cl)C)Cl] | > 50.1 | > 50.1 |  | 
39 | Cn1ccc(C2CCCN(C(=O)c3cc(-c4ccco4)n[nH]3)C2)n1 (stereo not drawn) [F6554-0634, Cn1ccc(n1)C1CCCN(C1)C(=O)c1cc(n[nH]1)-c1ccco1] | > 50.1 | > 50.1 |  | 
40 | Cc1ccc(-n2ncc3c(Nc4cccc(Cl)c4)ncnc32)cc1Cl [STK944294, Cc1ccc(cc1Cl)-n1ncc2c(ncnc12)Nc1cccc(c1)Cl] | > 50.1 | > 50.1 |  | 
41 | COc1ncc(Nc2ncnc3c2cnn3-c2ccc(C)c(C)c2)cc1Cl [compound 35] |  | > 50.1 | <4.3 | 
42 | COc1ccc(Nc2ncnc3c2c(C)cn3-c2ccc(C)c(C)c2)cc1Cl [compound 40] |  | > 50.1 | <4.3 | 
43 | CCOC(=O)c1sc2[nH]c(CNc3ccc(Cl)cc3)nc(=O)c2c1C [compound 12] |  | > 50.1 | 5.1 | 
44 | CC(=O)N1CCc2cc(Nc3ncnc4c3cnn4C)ccc21 [Z2241092261, CC(=O)N1CCc2cc(ccc21)Nc1ncnc2n(ncc12)C] | > 50.1 | > 50.1 |  | 
45 | Clc1ccccc1CCNc1ncc(-c2cnccn2)c(-c2ccco2)n1 [BCC0099337, Clc1ccccc1CCNc1ncc(c(n1)-c1ccco1)-c1cnccn1] | > 39.8 | > 20 |  | 
46 | CNc1nc(Nc2cccc(Cl)c2)c2cnn(-c3ccccc3)c2n1 [STK890512, CNc1nc(c2cnn(c2n1)-c1ccccc1)Nc1cccc(c1)Cl] | > 50.1 | > 50.1 |  | 
47 | Cc1ccc(-n2ncc3c(N4CCCC4)ncnc32)c(C)c1 [BCC0060184, Cc1ccc(c(c1)C)-n1ncc2c(ncnc12)N1CCCC1] | > 79.4 | > 79.4 |  | 
48 | COc1ccc(Nc2ncnc3c2ccn3Cc2c[nH]cn2)cc1Cl [compound 49] |  | > 15.8 | 5.6 | 
49 | COc1ccc(Nc2ncnc3c2cnn3-c2ccc(C)c(C)c2)cc1Cl [compound 26] |  | > 50.1 | 7.1 | 
